# Assay results published in patent US10039758B2 (priority 2014, dated 2018).
# Entries after “also recorded” stand apart in the source; their conditions may differ. Where two headings read alike, the source gives them in different places.
# Key:
# [1] = tested on: Ebola virus (Kikwit); assay: microbe, parasite or virus in culture; type: cell-based; details: Zaire ebolavirus, HeLa, 48 h
# [2] = tested on: anthrax lethal toxin (LF-PA), RAW264.7 cells; type: cell-based, mouse
# [3] = target: purified human cathepsin B (Homo sapiens, UniProt P07858); type: biochemical; details: 4, 8, 16, 33, 66 uM, without drug pre-incubation (FIG. 16)
# [4] = tested on: Chikungunya virus (CHIV); assay: microbe, parasite or virus in culture; details: HFF-1
# [5] = target: cathepsin B (Homo sapiens, UniProt P07858); type: binding
# [6] = in vitro; details: human
# [7] = tested on: diphtheria toxin, C32 human melanoma cell line; type: cell-based
# [8] = tested on: acidic organelles; type: cell-based, mouse; details: RAW264.7, AQ 1 hour, 500 ng/ml PA 1 hour
# [9] = tested on: PA; type: cell-based, mouse
# [10] = tested on: Respiratory syncytial virus (RSV): Strain A-2; assay: microbe, parasite or virus in culture; type: cell-based; details: human respiratory syncytial virus, HEp-2
# [11] = tested on: Clostridium difficile Toxin B, RAW264.7 cells
# [12] = in vitro
# [13] = tested on: anthrax toxin (12 μg LF + 40 μg PA); parameters: species or system Sprague-Dawley rats; details: rat, in vivo
# [14] = tested on: Ebola virus; details: cited from earlier work
# [15] = tested on: MEK2; type: cell-based, mouse
# [16] = target: T1, cathepsin B (Mus musculus, UniProt P10605); type: cell-based; details: RAW264.7, 4-66 uM, 1 hour before lysis (FIG. 17)
# [17] = tested on: caspase-1; type: cell-based, mouse
# [18] = target: T1, cathepsin B; type: biochemical; details: RAW264.7 lysate, 4-66 uM (FIG. 18)
# [19] = tested on: PA+FP59, RAW264.7 cells; type: cell-based, mouse
# [20] = tested on: Human Cytomegalovirus (CMV Strain AD169); details: Human Cytomegalovirus assay
# [21] = in vitro; details: human; remark: listed apart in the source
# [22] = target: LF (Bacillus anthracis, UniProt P15917); type: biochemical
# [23] = tested on: endosomal acidification; details: cited from earlier work
# [24] = tested on: host lysosomal cathepsin B; details: cited from earlier work
# T1 sequence (P10605 80-333): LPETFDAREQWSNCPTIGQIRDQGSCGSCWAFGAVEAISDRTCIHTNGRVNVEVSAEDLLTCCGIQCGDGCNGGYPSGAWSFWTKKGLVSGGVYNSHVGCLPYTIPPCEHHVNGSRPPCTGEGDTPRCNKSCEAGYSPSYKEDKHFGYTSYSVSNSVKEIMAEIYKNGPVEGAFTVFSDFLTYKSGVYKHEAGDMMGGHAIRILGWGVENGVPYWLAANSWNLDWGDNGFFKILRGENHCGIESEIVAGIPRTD
# Sequence of LF (P15917 34-809 limits assumed): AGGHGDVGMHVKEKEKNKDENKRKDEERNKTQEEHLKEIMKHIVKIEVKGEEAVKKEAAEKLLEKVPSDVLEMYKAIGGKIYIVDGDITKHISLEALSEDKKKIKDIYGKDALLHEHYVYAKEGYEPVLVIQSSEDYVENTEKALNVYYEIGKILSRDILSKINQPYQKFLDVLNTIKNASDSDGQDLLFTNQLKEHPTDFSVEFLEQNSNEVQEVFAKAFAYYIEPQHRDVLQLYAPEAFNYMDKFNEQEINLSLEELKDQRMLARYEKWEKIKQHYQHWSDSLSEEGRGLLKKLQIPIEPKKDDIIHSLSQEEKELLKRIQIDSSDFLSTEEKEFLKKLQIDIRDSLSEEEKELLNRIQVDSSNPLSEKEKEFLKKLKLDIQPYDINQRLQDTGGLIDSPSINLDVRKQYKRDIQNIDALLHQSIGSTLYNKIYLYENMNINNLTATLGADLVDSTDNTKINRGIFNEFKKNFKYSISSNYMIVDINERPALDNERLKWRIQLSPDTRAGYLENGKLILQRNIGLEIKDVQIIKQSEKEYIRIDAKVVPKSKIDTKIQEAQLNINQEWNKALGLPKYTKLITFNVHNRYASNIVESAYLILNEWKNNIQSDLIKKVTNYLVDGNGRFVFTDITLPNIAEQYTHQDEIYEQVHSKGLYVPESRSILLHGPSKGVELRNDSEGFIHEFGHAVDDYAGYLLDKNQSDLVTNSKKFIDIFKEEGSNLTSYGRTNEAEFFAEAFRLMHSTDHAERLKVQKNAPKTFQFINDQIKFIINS
compound,measurement,setting,value
"CCN(CC)Cc1cc(Nc2ccnc3cc(Cl)ccc23)ccc1O [AQ, Amodiaquine]",EC50,[1],3.8 µM
same,protection of host cells against anthrax toxin killing (cell survival),[2],increased survival; also recorded: completely protect
same,sensitivity of host cells to PA83+LF versus PA63+LF,[2],equally reduces sensitivity of host cells to both PA83+LF and PA63+LF treatments
same,"inhibition of cathepsin B activity, purified human cathepsin B",[3],directly inhibit cathepsin B activity in a dose dependent manner
same,EC50,[4],18.3 µM
same,binding to cathepsin B (STD difference spectrum),"[5]; 2 mM AQ, 20 μM cathepsin B",binding to the enzyme
same,"STD effect, atom H4",[5]; relative to the H4 atom (100%),100%
same,"STD effect, atom H5",[5]; relative to the H4 atom (100%),97%
same,CC50,[6],> 50 µM
same,multiplex hit in JHCCL screen: inhibition of anthrax and diphtheria toxin cell killing,[7],inhibited anthrax and diphtheria toxins
same,survival of C32 cells exposed to diphtheria toxin,[7],increase survival
same,cell-associated Lysosensor fluorescence (endosomal acidification),[8],markedly decreased cell-associated Lysosensor fluorescence
same,binding of PA83 to cells and proteolytic processing of PA to PA63,[9],did not block binding of PA83 to cells or block proteolytic processing of PA to generate PA63
same,EC50,[10],32 µM
same,survival of RAW264.7 macrophages exposed to Clostridium difficile Toxin B,[11],increase survival
same,CC50,[12],31 µM
same,clinical signs of toxin challenge,[13],all of the animals in that group displayed classical signs of having undergone a toxin challenge
same,survival and toxin-associated symptoms,[13],survived; also recorded: protected all of the rats; also recorded: all survived without displaying toxin-associated symptoms
same,inhibition of Ebola virus pathogenicity in cells,[14],inhibit Ebola virus pathogenicity in cells
same,cleavage of MEK2 by LF in cells (immunoblot),[15],completely prevented this effect
same,cathepsin B enzymatic activity in cells pre-treated with drug,[16],lost cathepsin B enzymatic activity in a dose dependent manner
same,active caspase-1 (FLICA fluorescence) after LF-PA,[17],not detected
same,cathepsin B activity in protein lysate from cells not exposed to drugs prior to lysis,[18],inhibited cathepsin B activity
same,sensitivity of cells to PA+FP59,[19],less sensitive to treatment with PA+FP59
same,CC50,[20],> 60 µM
same,CC50,[21],50 µM
same,proteolytic activity of LF on MAPKK peptide (emission at 523 nm),[22],does not block the proteolytic activity of LF
"CCN(CC)CCCC(C)Nc1ccnc2cc(Cl)ccc12 (stereo not drawn) [CQ, Chloroquine]","inhibition of cathepsin B activity, purified human cathepsin B",[3],weaker inhibitors of cathepsin B activity
same,multiplex hit in JHCCL screen: inhibition of anthrax and diphtheria toxin cell killing,[7],inhibited anthrax and diphtheria toxins
same,inhibition of Ebola virus pathogenicity in cells,[14],inhibit Ebola virus pathogenicity in cells
same,cathepsin B enzymatic activity in cells pre-treated with drug,[16],weaker inhibitors of cathepsin B activity
same,cathepsin B activity in protein lysate from cells not exposed to drugs prior to lysis,[18],weaker inhibitors of cathepsin B activity
same,endosomal acidification,[23],prevent endosomal acidification
C=C[C@H]1C[N@@]2CC[C@H]1C[C@@H]2[C@@H](O)c1ccnc2ccccc12 [Cinchonine],protection of host cells against anthrax toxin killing (cell survival),[2],"none of the other quinoline-containing antimalarial compounds, Cinchonine, Primaquine, and Quinidine, from JHCCL were active"
"CCNCc1cc(Nc2ccnc3cc(Cl)ccc23)ccc1O [DEAQ, N-Desethyl Amodiaquine]",EC50,[1],3.6 µM
same,protection of host cells against anthrax toxin killing (cell survival),[2],increased survival
same,"inhibition of cathepsin B activity, purified human cathepsin B",[3],directly inhibit cathepsin B activity in a dose dependent manner
same,cathepsin B enzymatic activity in cells pre-treated with drug,[16],lost cathepsin B enzymatic activity in a dose dependent manner
same,cathepsin B activity in protein lysate from cells not exposed to drugs prior to lysis,[18],inhibited cathepsin B activity
"CCNCCCC(C)Nc1ccnc2cc(Cl)ccc12 (stereo not drawn) [DECQ, Desethyl-Chloroquine]","inhibition of cathepsin B activity, purified human cathepsin B",[3],weaker inhibitors of cathepsin B activity
same,cathepsin B enzymatic activity in cells pre-treated with drug,[16],weaker inhibitors of cathepsin B activity
same,cathepsin B activity in protein lysate from cells not exposed to drugs prior to lysis,[18],weaker inhibitors of cathepsin B activity
COc1cc(NC(C)CCCN)c2ncccc2c1 (stereo not drawn) [Primaquine],protection of host cells against anthrax toxin killing (cell survival),[2],"none of the other quinoline-containing antimalarial compounds, Cinchonine, Primaquine, and Quinidine, from JHCCL were active"
C=C[C@H]1C[N@@]2CC[C@H]1C[C@@H]2[C@@H](O)c1ccnc2ccc(OC)cc12 [Quinidine],protection of host cells against anthrax toxin killing (cell survival),[2],"none of the other quinoline-containing antimalarial compounds, Cinchonine, Primaquine, and Quinidine, from JHCCL were active"
CA-074,effect of cathepsin B inhibition on cellular sensitivity to LF-PA,[24],reduction of cellular sensitivity to LF-PA
